Here are results for seven compounds from ChEMBL document CHEMBL1201862, “PubChem BioAssay data set” (2004).

In experiment [1] the target is T1, Carboxy-terminal domain RNA polymerase II polypeptide A small phosphatase 1 (Homo sapiens, UniProt Q9GZU7).
T1 sequence (Q9GZU7 whole entry): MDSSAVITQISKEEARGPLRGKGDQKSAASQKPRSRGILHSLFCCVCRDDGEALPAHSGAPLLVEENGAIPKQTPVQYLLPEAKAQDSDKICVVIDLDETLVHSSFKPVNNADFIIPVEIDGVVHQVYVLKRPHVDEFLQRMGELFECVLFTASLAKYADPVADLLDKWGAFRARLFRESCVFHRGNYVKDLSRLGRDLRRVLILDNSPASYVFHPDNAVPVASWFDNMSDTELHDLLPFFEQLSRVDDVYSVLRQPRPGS
As to the kind of experiment: CTDSP1 inhibitors, concentration-response, biochemical, absorbance readout, ultra-high-throughput screen actives (AID 540297). Format: functional.

The target in experiment [2] is T2, Low molecular weight phosphotyrosine protein phosphatase (Homo sapiens, UniProt P24666).
T2 sequence (P24666 whole entry): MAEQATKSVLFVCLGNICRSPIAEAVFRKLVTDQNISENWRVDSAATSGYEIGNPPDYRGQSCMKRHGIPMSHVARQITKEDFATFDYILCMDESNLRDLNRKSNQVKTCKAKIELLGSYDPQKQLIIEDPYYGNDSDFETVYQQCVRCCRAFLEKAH
The format is functional. As to conditions: read-out: IC50_Mean.

Experiment [3] has as its target T2, Low molecular weight phosphotyrosine protein phosphatase. The format is functional. The conditions noted are these: read-out: IC50_Mean. This is another data set of the same source.
The target in experiment [4] is T3, High affinity choline transporter 1 (Homo sapiens, UniProt Q9GZV3).
T3 sequence (Q9GZV3 whole entry): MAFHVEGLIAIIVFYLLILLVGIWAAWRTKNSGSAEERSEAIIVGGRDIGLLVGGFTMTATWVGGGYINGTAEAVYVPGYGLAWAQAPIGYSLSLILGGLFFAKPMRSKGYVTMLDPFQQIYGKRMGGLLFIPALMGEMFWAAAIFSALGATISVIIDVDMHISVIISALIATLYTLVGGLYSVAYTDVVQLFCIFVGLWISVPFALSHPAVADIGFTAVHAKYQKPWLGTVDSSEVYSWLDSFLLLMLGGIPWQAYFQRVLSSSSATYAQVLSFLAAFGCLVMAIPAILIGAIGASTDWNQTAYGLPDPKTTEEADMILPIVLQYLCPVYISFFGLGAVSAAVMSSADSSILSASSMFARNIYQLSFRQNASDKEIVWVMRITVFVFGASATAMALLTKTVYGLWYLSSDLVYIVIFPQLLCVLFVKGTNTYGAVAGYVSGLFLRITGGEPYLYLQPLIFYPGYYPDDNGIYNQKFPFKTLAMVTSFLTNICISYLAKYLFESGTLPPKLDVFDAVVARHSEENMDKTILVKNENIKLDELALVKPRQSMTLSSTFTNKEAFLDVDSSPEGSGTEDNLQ
Put plainly: human choline transporter potentiators, potency – cell-based, 10-point CRC, membrane potential dye, dose response (AID 602376). The format is functional.

In experiment [5] the target is DNA dC->dU-editing enzyme APOBEC-3A (Homo sapiens, UniProt P31941). Put plainly: Dose Response confirmation of small molecule APOBEC3A DNA Deaminase Inhibitors via a fluorescence-based single-stranded DNA deaminase assay. [Related pubchem assays (depositor defined):AID493011, AID493024]. The format is functional.
For experiment [6], the target named is DNA dC->dU-editing enzyme APOBEC-3G (Homo sapiens, UniProt Q9HC16). Format: functional.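 Note: Dose-response counterscreen measuring inhibition of APOBEC3G DNA deaminase activity, run while confirming APOBEC3A inhibitors.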
The target in experiment [7] is Benomyl/methotrexate resistance protein (Candida albicans, UniProt P28873). Put plainly: Candida albicans Mdr1 pump inhibition curves – singleplex, Cherry Pick1 hits, dose response (AID 588608). Format: functional.
Experiment [8] addresses T4, Rac GTPase-activating protein 1 (Homo sapiens, UniProt Q9H0H5).
T4 sequence (Q9H0H5 whole entry): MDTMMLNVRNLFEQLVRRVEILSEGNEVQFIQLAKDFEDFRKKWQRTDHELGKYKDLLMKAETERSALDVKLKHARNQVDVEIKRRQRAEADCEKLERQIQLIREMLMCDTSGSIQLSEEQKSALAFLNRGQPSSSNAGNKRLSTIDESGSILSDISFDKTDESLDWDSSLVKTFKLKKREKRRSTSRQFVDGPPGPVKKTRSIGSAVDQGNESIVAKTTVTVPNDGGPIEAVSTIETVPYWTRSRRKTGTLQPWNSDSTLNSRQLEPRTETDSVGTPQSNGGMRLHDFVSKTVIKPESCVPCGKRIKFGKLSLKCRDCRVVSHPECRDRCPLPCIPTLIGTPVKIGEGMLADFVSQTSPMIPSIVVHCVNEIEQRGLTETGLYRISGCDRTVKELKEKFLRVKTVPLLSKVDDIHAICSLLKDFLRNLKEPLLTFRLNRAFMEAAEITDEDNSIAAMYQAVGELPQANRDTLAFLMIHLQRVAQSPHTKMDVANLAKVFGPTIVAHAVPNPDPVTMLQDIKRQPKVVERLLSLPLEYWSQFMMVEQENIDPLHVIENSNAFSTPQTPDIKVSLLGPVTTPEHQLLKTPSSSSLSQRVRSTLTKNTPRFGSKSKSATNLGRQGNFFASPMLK
As to the kind of experiment: blockers of MgcRacGAP-driven Rac1 GTP hydrolysis – biochemical, ADP Hunter fluorescence, primary and confirmatory, confirmation (AID 624330). Format: functional.

A short description of experiment [9]: viability loss in HeLa cells – cytotoxicity control for MgcRacGAP inhibitor project, dose response (AID 624300). Format: functional.
Experiment [10] addresses T3, High affinity choline transporter 1. Put plainly: human choline transporter blockers, potency – cell-based, 5-point CRC, membrane potential dye, dose response (AID 504840). Format: functional.
Experiment [11] shares this target. Put plainly: human choline transporter blockers, potency – cell-based, 10-point CRC, membrane potential dye, dose response (AID 588401).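 Note: membrane potential dye fluorescence of choline-evoked depolarization via CHT.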 The format is functional.
Experiment [12] deals with A-375. Put plainly: proliferation inhibition in MITF-low A375 cells – cell-based, cherry-pick samples, set 2, counter-screen for MITF modulator project, dose response (AID 540335). Format: functional. The conditions noted are these: Homo sapiens. On the technique in general: A counterscreen serves to expose hits that act by an unwanted route or on another target.
The target in experiment [13] is Type-1 angiotensin II receptor (Homo sapiens, UniProt P30556). Put plainly: antagonism of angiotensin II type 1 receptor – cell-based, uHTS hits, selectivity assay for APJ receptor antagonist project, dose response (AID 463214).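 Note: antagonist potency against angiotensin II stimulated AT1 response.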 Format: functional.
Experiment [14] in a line: Luminescence Cell-Based Dose Retest to Confirm Inhibitors of Cancer Stem Cells. [Related pubchem assays (depositor defined):AID2717, AID2721]. Format: functional. As to conditions: Homo sapiens.
The nature of experiment [15]: non-specific 3'UTR reporter inhibition in Clone20-Shn3RL – cell-based, Renilla luciferase, cherry-picked, counter-screen for Shn3 inhibitor project, dose response (AID 624133). Format: functional.
Experiment [16] deals with T5, Fatty acid synthase (Homo sapiens, UniProt P49327). Put plainly: inhibition of human FAS-TE enzyme activity – biochemical, endpoint fluorescence intensity, uHTS hits, dose response (AID 624327).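 Note: fluorescence from hydrolysis of an O-methyl fluorescein acyl ester substrate by the enzyme.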 The format is functional.
The target of experiment [17] is Beta-galactosidase (Escherichia coli, UniProt Q8VNN2). As to the kind of experiment: PubChem AID 485352. The format is functional.
A short description of experiment [18]: reduction of Shn3 3'UTR-driven luciferase in osteoblasts – cell-based, Clone20 osteoblasts, firefly luciferase, cherry-picked, dose response (AID 624132).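 Note: firefly luciferase luminescence from reporter carrying the Shn3 3'UTR in osteoblasts.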 The format is functional.
Experiment [19] deals with Beta Lactamase (Pseudomonas aeruginosa, UniProt Q932Y6). Put plainly: BLA reporter interference, concentration series – BLA reporter cells, FRET fluorescence, artefact control for TLR9-MyD88 binding inhibitor project, dose response (AID 588341).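 Note: cell based assay in CHO-K1 cells stably expressing beta-lactamase.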 Format: cell-based.
The subject of experiment [20] is CHO. As to the kind of experiment: CHO cell viability loss, potency – luminescence, cytotoxicity control for TLR9-MyD88 binding inhibitor project, dose response (AID 588339).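 Note: CHO cells stably coexpressing TLR9 and MyD88 fusions from primary screen; compound exposure lasted 48 hours before viability readout.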 Format: functional, cell-based, hamster. As to conditions: Cricetulus griseus.
The target of experiment [21] is Heat shock protein HSP 90-alpha (Homo sapiens, UniProt P07900). Format: functional, organism-based.
In experiment [22] the target is Paired box protein Pax-8 (Homo sapiens, UniProt Q06710). Put plainly: PAX8 transcriptional activity inhibition in RMG-I – RMG-I cells, luciferase, cherry-pick, dose response (AID 687027).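 Note: luciferase reporter driven by Pax8 target thyroperoxidase promoter measured by SteadyGlo luminescence.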 Format: functional, cell-based.
Experiment [23] deals with T6, Microphthalmia-associated transcription factor (Homo sapiens, UniProt O75030).
T6 sequence (O75030 whole entry): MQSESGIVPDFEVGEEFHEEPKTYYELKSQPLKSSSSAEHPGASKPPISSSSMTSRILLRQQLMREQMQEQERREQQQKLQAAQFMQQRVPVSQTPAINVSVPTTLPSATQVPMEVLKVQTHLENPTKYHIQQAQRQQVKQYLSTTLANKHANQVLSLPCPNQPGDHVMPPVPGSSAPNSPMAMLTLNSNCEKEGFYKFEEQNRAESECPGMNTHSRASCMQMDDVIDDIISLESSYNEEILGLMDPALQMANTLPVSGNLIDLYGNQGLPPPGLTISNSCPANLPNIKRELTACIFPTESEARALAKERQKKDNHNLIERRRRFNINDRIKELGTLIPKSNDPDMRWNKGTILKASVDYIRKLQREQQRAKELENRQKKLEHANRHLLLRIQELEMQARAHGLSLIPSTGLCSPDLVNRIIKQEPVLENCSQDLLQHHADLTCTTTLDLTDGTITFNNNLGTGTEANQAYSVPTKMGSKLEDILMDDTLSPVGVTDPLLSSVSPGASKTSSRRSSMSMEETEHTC
As to the kind of experiment: reducers of TRPM1 reporter luminescence, concentration series – cell-based, SK-MEL-5, cherry-picked, set 3, MITF inhibitor project, dose response (AID 493073).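 Note: SK-MEL-5 melanoma cells with luciferase driven by the MITF target TRPM1 promoter.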 The format is functional.

Experiment [24] concerns the target ATP-binding cassette sub-family B member 6 (Homo sapiens, UniProt Q9NP58). Put plainly: concentration-dependent ABCB6 porphyrin transport blockade – K562-ABCB6 cells, flow cytometry, cherry pick 1, dose response (AID 623955). The format is functional. The conditions noted are these: read-out: EC50_MICROM.
Experiment [25] deals with T5, Fatty acid synthase. Put plainly: inhibition of human FAS-TE enzyme activity – biochemical, kinetic fluorescence intensity, dose response (AID 624326).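 Note: rate of fluorescence rise from hydrolysis of a fluorogenic O-methyl fluorescein ester substrate.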 Format: functional.
Experiment [26] deals with A-375. As to the kind of experiment: MITF: Counter assay: A375 proliferation Measured in Cell-Based System Using Plate Reader - 2084-03_Inhibitor_Dose_DryPowder_Activity. [Related pubchem assays (depositor defined):AID488944]. The format is functional. The conditions noted are these: Homo sapiens.
A short description of experiment [27]: loss of viability in HepG2 cells – cell-based, CellTiter-Glo, cherry-picked, cytotoxicity control for Shn3 inhibitor project, dose response (AID 624134). Format: functional. For orientation: Cellular ATP, detected with luciferase, serves as a proxy for viable cell number.

A word on the CC50: it is the concentration giving 50% cytotoxicity. For orientation: AC50 means the concentration at which the activity in the assay is half-maximal.

Structures are written as SMILES. Counter-ions that a name gives are not always drawn. The source made the active and inactive calls.

T5 sequence (P49327 whole entry): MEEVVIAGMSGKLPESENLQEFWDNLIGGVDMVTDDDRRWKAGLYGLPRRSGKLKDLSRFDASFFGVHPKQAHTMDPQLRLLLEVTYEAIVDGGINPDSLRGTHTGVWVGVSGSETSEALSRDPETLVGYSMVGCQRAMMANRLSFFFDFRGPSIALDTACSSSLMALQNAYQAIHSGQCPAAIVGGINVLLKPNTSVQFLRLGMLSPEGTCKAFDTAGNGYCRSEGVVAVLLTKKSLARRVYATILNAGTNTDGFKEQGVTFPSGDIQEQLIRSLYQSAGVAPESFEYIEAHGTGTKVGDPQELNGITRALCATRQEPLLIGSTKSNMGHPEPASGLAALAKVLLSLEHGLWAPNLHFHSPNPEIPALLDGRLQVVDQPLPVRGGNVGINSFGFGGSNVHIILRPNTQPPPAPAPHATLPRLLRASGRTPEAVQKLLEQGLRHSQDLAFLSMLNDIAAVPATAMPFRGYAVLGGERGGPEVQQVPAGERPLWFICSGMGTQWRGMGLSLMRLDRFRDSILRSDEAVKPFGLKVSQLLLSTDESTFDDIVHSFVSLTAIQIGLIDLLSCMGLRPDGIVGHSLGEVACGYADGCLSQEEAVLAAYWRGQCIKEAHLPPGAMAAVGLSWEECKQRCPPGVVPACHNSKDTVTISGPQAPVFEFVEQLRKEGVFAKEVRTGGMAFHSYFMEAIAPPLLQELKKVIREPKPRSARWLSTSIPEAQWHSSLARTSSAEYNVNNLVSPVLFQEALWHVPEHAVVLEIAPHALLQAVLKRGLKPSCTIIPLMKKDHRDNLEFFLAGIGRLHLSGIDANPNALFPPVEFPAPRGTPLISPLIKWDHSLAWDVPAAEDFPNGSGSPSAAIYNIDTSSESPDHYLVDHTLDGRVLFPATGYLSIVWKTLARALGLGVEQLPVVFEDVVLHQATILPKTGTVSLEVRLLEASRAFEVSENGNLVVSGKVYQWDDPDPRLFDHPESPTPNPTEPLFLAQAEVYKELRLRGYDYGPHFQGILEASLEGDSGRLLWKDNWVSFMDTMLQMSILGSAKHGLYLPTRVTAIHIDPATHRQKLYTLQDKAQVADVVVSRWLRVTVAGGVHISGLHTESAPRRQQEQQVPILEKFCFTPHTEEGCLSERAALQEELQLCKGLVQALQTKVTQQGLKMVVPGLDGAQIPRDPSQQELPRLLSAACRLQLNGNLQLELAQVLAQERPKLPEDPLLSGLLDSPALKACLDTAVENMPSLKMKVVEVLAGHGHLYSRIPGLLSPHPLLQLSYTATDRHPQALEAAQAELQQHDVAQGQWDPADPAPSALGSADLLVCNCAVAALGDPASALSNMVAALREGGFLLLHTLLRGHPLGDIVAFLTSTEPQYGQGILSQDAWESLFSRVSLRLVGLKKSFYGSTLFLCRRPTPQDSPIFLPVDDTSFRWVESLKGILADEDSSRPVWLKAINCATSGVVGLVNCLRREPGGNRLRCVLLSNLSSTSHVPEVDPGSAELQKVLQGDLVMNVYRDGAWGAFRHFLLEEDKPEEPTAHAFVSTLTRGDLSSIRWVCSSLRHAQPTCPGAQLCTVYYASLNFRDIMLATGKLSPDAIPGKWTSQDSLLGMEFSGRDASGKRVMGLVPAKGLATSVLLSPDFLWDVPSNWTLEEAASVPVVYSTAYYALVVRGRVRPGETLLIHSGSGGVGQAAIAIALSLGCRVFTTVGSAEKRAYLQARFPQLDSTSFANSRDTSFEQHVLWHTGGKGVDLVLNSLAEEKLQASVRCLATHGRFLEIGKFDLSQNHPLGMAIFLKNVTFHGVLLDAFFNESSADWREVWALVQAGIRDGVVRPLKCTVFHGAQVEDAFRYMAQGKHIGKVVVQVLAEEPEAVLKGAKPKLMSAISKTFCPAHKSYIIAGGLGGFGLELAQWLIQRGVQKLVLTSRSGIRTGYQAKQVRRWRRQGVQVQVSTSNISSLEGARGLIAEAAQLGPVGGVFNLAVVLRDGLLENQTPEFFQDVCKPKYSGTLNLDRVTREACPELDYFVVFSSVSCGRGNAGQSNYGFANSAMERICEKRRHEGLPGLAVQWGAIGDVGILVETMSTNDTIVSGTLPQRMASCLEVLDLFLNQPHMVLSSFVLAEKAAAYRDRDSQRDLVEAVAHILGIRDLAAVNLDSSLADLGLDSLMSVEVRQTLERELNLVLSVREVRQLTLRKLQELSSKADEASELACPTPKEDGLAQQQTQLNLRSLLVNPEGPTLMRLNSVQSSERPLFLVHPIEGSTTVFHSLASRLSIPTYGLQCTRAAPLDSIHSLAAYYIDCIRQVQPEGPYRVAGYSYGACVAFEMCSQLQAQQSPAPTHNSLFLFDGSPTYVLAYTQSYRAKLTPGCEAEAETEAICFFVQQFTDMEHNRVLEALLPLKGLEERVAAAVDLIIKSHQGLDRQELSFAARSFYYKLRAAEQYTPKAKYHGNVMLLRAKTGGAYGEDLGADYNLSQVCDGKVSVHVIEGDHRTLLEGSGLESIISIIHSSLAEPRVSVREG
Chain of Beta-galactosidase (Q8VNN2 whole entry): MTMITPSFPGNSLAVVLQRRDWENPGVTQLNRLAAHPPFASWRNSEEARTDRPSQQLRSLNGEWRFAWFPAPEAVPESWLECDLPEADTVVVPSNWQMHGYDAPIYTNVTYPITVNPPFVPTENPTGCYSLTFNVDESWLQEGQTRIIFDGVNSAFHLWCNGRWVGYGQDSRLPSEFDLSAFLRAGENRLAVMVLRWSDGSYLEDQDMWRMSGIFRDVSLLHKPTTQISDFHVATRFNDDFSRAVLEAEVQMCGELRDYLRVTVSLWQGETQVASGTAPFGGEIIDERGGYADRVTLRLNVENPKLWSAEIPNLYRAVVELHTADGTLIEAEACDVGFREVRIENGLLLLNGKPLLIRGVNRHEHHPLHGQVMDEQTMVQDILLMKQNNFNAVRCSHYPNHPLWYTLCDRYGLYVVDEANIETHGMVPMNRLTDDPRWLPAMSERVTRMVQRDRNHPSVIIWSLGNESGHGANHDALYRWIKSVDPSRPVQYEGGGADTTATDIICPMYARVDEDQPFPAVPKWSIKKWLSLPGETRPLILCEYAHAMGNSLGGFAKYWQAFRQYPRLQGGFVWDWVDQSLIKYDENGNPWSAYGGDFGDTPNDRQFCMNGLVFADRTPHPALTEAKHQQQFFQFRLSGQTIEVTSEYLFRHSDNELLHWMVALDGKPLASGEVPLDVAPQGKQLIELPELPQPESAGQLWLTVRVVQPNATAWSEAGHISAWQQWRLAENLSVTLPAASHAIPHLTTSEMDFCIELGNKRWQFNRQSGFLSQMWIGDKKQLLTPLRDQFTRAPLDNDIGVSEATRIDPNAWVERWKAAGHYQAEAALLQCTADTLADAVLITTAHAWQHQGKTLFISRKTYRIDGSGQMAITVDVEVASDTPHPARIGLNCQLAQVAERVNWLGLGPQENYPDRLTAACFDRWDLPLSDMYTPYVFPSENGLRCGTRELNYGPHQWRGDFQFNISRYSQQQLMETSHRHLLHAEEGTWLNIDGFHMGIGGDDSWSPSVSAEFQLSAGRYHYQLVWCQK
Chain of ATP-binding cassette sub-family B member 6 (Q9NP58 whole entry): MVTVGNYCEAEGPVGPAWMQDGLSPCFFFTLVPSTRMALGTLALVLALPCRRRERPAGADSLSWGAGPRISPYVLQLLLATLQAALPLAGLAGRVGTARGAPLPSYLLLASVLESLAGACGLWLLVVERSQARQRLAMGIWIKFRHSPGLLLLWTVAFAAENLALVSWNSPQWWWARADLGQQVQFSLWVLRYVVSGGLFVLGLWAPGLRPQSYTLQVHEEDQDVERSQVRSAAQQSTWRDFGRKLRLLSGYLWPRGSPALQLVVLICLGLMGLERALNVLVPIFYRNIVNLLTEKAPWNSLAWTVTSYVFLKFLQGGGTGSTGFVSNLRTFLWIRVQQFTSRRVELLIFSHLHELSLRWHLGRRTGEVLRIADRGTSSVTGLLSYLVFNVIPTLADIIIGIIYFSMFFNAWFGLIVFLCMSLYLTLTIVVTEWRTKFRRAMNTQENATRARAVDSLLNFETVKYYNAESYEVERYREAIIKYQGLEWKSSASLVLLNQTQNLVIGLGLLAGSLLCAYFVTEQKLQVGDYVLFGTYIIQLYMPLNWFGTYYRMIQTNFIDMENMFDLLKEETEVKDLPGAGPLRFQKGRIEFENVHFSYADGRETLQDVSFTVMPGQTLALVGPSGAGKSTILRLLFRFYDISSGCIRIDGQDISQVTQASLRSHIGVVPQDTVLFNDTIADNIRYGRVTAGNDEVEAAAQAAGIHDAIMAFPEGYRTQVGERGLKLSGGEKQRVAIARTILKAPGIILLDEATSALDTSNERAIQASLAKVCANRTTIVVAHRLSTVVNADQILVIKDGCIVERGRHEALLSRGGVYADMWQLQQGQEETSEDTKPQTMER
Chain of Benomyl/methotrexate resistance protein (P28873 whole entry): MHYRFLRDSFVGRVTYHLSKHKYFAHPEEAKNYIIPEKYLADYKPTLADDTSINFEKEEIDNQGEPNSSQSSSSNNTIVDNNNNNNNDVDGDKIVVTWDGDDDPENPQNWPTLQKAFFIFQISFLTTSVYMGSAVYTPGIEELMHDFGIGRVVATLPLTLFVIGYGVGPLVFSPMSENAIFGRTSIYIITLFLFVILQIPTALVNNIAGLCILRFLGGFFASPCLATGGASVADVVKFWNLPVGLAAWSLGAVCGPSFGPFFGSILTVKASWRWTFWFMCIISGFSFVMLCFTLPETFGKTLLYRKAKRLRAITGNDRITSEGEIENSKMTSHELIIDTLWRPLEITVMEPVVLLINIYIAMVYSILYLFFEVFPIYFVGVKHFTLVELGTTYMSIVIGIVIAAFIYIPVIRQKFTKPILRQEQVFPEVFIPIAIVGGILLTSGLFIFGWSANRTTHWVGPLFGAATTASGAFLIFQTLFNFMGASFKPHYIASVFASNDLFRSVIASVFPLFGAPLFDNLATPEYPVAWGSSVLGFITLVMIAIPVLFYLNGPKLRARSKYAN

`N=c1c2ccccc2nnn1-c1ccc(C(F)(F)F)cc1`: the IC50 in [1] is 8.01 µM (active); in experiment [2], 12.8 µM (active); in [3], 18.8 µM (active).
On to `CCN1C(NCCc2cccnc2)=N[C@@H](c2ccccc2)[C@H](C(=O)OC)[C@H]1C`, for which the EC50 in [4] is 14.6 µM (active). Further, the values for the IC50 in experiment [5] and in experiment [6] were 4.22 µM (active) and 6.37 µM (active), respectively.
For `Cc1ccc(C)c(C(=O)COC(=O)c2ccc(C)c(S(=O)(=O)N3CCOCC3)c2)c1`, in experiment [7], the EC50 was 704 nM (active).
Turning to `CN(c1ccc(O)cc1)c1nc(-c2ccccc2)cs1`, the IC50 in experiment [8] is 57.7 µM (active). Further, the CC50 in experiment [9] was 100 µM (active).
With `COc1ccc(C(=O)c2c3ccc(C(F)(F)F)cc3[n+]([O-])n2CCCN)cc1`, the IC50 in [10] was 9.03 µM (active); in [11], 4.47 µM (active).
Taken in the same sequence, the figures for `CC(C)(C)NCC(O)c1cc(Cl)c(N)c(Cl)c1` (centres undefined) [CLENBUTEROL HYDROCHLORIDE] were 0.0288 µM (active) and 0.000897 µM (active).
Take `O=C(Nc1ccc(F)cc1)c1nc(S(=O)(=O)Cc2ccccc2)ncc1Cl`: the AC50 in [12] was > 11 µM (active); in experiment [14] it was 1.63 µM (active); in experiment [15] it was 6.61 µM (active); in [18], 3.38 µM (active); in experiment [21], 3.46 µM (active); in experiment [22], 10.4 µM (active). Further, the AC50 is 9.45 µM (active) in [23], > 11 µM (active) in [26] and 22.6 µM (active) in experiment [27]. The IC50 in [13] was 11.8 µM (active); in [16], 13.4 µM (active); in experiment [19], 5.43 µM (active); in experiment [20], 2.79 µM (active); in experiment [25], 8.67 µM (active). Further, the EC50 in [17] is > 40 µM (inactive); in experiment [24], 62.8 µM (active).
